Source: PubChem BioAssay AID1963848 (Molecular Pharmacology Branch, DTP, NCI, 2024)

Tested on: 379773-124-R-J2-PDC spheroid viability
Test: Anticancer human tumor 379773-124-R-J2-PDC patient-derived endometrial carcinoma cell line growth inhibition [POLQ]
Conditions: spheroids with HUVEC and MSC; for IC50: curve of first compound; for viability, T/C: stronger effect = lower value
In short: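 Complex spheroid viability model combining PDC tumour cells with endothelial (HUVEC) and MSC stromal cells. Novobiocin, ART-558 or RP6685 were tested singly and in combination with standard and investigational anticancer drugs. Each was titrated in half-log steps from near clinical Cmax, or from 10 microM where Cmax was unknown.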

[1] = second compound 0.0316 µM, first compound 0.0316 µM
[2] = second compound 0.0316 µM, first compound 0.1 µM
[3] = second compound 0.0316 µM, first compound 0.316 µM
[4] = second compound 0.0316 µM, first compound 1 µM
[5] = second compound 0.1 µM, first compound 0.0316 µM
[6] = second compound 0.1 µM, first compound 0.1 µM
[7] = second compound 0.1 µM, first compound 0.316 µM
[8] = second compound 0.1 µM, first compound 1 µM
[9] = second compound 0.316 µM, first compound 0.0316 µM
[10] = second compound 0.316 µM, first compound 0.1 µM
[11] = second compound 0.316 µM, first compound 0.316 µM
[12] = second compound 0.316 µM, first compound 1 µM
[13] = second compound 1 µM, first compound 0.0316 µM
[14] = second compound 1 µM, first compound 0.1 µM
[15] = second compound 1 µM, first compound 0.316 µM
[16] = second compound 1 µM, first compound 1 µM
[17] = second compound 3.16 µM, first compound 0.0316 µM
[18] = second compound 3.16 µM, first compound 0.1 µM
[19] = second compound 3.16 µM, first compound 0.316 µM
[20] = second compound 3.16 µM, first compound 1 µM
[21] = second compound 10 µM, first compound 0.0316 µM
[22] = second compound 10 µM, first compound 0.1 µM
[23] = second compound 10 µM, first compound 0.316 µM
[24] = second compound 10 µM, first compound 1 µM
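Also: spheroids exposed to drugs for seven days before readout.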
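For viability, T/C in this document: percent viability relative to DMSO vehicle control taken as 100%.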

With `COc1cccc2c1C(=O)c1c(O)c3c(c(O)c1C2=O)CC(O)(C(=O)CO)CC3OC1CC(N)C(O)C(C)O1` (centres undefined) + Cc1cccc(N(C)C(=O)C2C(O)CCN2c2nc(C)cc(C(F)(F)F)c2C#N)c1 the IC50 (second compound 0.0316 µM) was 58.5 nM, the IC50 (second compound 0.1 µM) was 63.5 nM and the IC50 (second compound 0.316 µM) was 52 nM. For the same compound, the IC50 (second compound 1 µM) was 54.1 nM, the IC50 (second compound 3.16 µM) was 48.3 nM and the IC50 (second compound 10 µM) was < 31.6 nM. For the same compound, the viability, T/C [1] was 80.6%, the viability, T/C [2] was 22% and the viability, T/C [3] was 9.56%. It also gave a viability, T/C [4] of 6.15%, a viability, T/C (second compound 0.0316 µM, first compound 3.16 µM) of 0.89% and a viability, T/C (second compound 0.0316 µM, first compound 10 µM) of 0.14%. For the same compound, the viability, T/C [5] was 82.8%, the viability, T/C [6] was 28.3% and the viability, T/C [7] was 9.45%. The viability, T/C [8] was 5.6%, the viability, T/C (second compound 0.1 µM, first compound 3.16 µM) was 1.37% and the viability, T/C (second compound 0.1 µM, first compound 10 µM) was 0.84%. It also gave a viability, T/C [9] of 70.5%, a viability, T/C [10] of 23.1% and a viability, T/C [11] of 7.91%. The viability, T/C [12] was 6.47%, the viability, T/C (second compound 0.316 µM, first compound 3.16 µM) was 2% and the viability, T/C (second compound 0.316 µM, first compound 10 µM) was 1.9%. The viability, T/C [13] was 74.8%, the viability, T/C [14] was 20.8% and the viability, T/C [15] was 9.58%. It also gave a viability, T/C [16] of 5.67%, a viability, T/C (second compound 1 µM, first compound 3.16 µM) of 0.65% and a viability, T/C (second compound 1 µM, first compound 10 µM) of 1.38%. The viability, T/C [17] was 69.5%, the viability, T/C [18] was 15.7% and the viability, T/C [19] was 7.22%. The viability, T/C [20] was 7.14%, the viability, T/C (second compound 3.16 µM, first compound 3.16 µM) was 1.2% and the viability, T/C (second compound 3.16 µM, first compound 10 µM) was 0.28%. For the same compound, the viability, T/C [21] was 48.5%, the viability, T/C [22] was 12% and the viability, T/C [23] was 9.32%. The viability, T/C [24] was 4.59%, the viability, T/C (second compound 10 µM, first compound 3.16 µM) was 0.51% and the viability, T/C (second compound 10 µM, first compound 10 µM) was 0.38%.
For `C=CCn1c(=O)c2cnc(Nc3ccc(N4CCN(C)CC4)cc3)nc2n1-c1cccc(C(C)(C)O)n1` + COC1C(OC(N)=O)C(O)C(Oc2ccc3c(O)c(NC(=O)c4ccc(O)c(CC=C(C)C)c4)c(=O)oc3c2C)OC1(C)C, the IC50 (second compound 0.0316 µM) was 453 nM, the IC50 (second compound 0.1 µM) was 425 nM and the IC50 (second compound 0.316 µM) was 354 nM. It also gave an IC50 (second compound 1 µM) of 487 nM, an IC50 (second compound 3.16 µM) of 472 nM and an IC50 (second compound 10 µM) of 436 nM. It also gave a viability, T/C (second compound 0.0316 µM, first compound 0.00316 µM) of 84.1%, a viability, T/C (second compound 0.0316 µM, first compound 0.01 µM) of 74.3% and a viability, T/C [1] of 89.5%. It also gave a viability, T/C [2] of 79.7%, a viability, T/C [3] of 71.9% and a viability, T/C [4] of 1.84%. It also gave a viability, T/C (second compound 0.1 µM, first compound 0.00316 µM) of 82.8%, a viability, T/C (second compound 0.1 µM, first compound 0.01 µM) of 73.7% and a viability, T/C [5] of 85.3%. It also gave a viability, T/C [6] of 81.7%, a viability, T/C [7] of 66.2% and a viability, T/C [8] of 3.04%. For the same compound, the viability, T/C (second compound 0.316 µM, first compound 0.00316 µM) was 87.9%, the viability, T/C (second compound 0.316 µM, first compound 0.01 µM) was 74.8% and the viability, T/C [9] was 88.3%. It also gave a viability, T/C [10] of 88%, a viability, T/C [11] of 55.3% and a viability, T/C [12] of 2.39%. For the same compound, the viability, T/C (second compound 1 µM, first compound 0.00316 µM) was 80.6%, the viability, T/C (second compound 1 µM, first compound 0.01 µM) was 89.8% and the viability, T/C [13] was 78.3%. The viability, T/C [14] was 88.8%, the viability, T/C [15] was 78.2% and the viability, T/C [16] was 2.58%. It also gave a viability, T/C (second compound 3.16 µM, first compound 0.00316 µM) of 85.6%, a viability, T/C (second compound 3.16 µM, first compound 0.01 µM) of 86.9% and a viability, T/C [17] of 79.6%. It also gave a viability, T/C [18] of 77.5%, a viability, T/C [19] of 74.8% and a viability, T/C [20] of 3.31%. The viability, T/C (second compound 10 µM, first compound 0.00316 µM) was 77.5%, the viability, T/C (second compound 10 µM, first compound 0.01 µM) was 66.6% and the viability, T/C [21] was 103%. For the same compound, the viability, T/C [22] was 81%, the viability, T/C [23] was 68.6% and the viability, T/C [24] was 2.21%.
